Reference: patent US9963456B2, “Pyrrolopyrimidine compound or salt thereof and compositions containing the pyrrolopyrimidine compound or salt thereof” (TAIHO PHARMACEUTICAL CO., LTD., priority 2014, dated 2018)

What was measured:
[1] = system: human osteo- and soft tissue sarcoma SJCRH30 cell line; assay: Cell growth inhibition 2, SJCRH30; assay type: cell-based; conditions: 384-well plate
carbonic anhydrase II = carbonic anhydrase II (Homo sapiens (Human), UniProt P00918); assay: Carbonic anhydrase II enzyme activity inhibition (4-NPA esterase activity); assay type: biochemical; conditions: for IC50: 4-nitrophenyl acetate esterase activity, absorbance at 405 nm
[2] = system: human acute lymphoblastic leukemia (ALL) CCRF-CEM cell lines; assay: Antitumor effect on tumor cells transplanted into mice 3; assay type: in vivo; conditions: CCRF-CEM xenograft in nude mice, 120 mg/kg/day intravenous
[3] = system: Human colon cancer HCT-116 cell lines; assay: Antitumor effect on tumor cells transplanted into mice 2; assay type: in vivo
[4] = system: Human colon cancer HCT-116 cell lines; assay: Antitumor effect on tumor cells transplanted into mice 1; assay type: in vivo; conditions: for T/C15 (%): HCT-116 s.c. in BALB/cAJcl-nu/nu mice; for RTV15 comparison with the control: Dunnett's test; for BWC15 (%) Mean ± SD: body weight change
Method: Human colon cancer HCT-116 cell lines were washed in PBS and suspended at a concentration of 4×10^7 cells/mL. 0.1 mL of this cell suspension was subcutaneously implanted in the right chest of 6-week-old BALB/cAJcl-nu/nu mice (produced by CLEA Japan, Inc.).
(§1) The length and the width of the implanted tumor and the body weight were measured. The tumor volume (TV) was calculated using the following equation (equation D). TV(mm3)=(length×width^2)/2, wherein the unit of length and width is mm (equation D).
When the TV reached 100 to 300 mm3, the animals were assigned to each group in accordance with a stratified randomization procedure. The day was considered day 1, the TV on the day was considered TV1, and the body weight on the day was considered BW1.
A required amount of the test compound was weighed to prepare an administration solution.
(§2) Thereafter, the length and the width of the tumor and the body weight (BWn) on day n were measured over time in the same manner, and the TVn of each mouse was calculated. Further, the relative tumor volume (RTVn) was calculated based on the TVn of each mouse using the following equation (equation E); the treatment/control (T/C) value (%) was calculated based on the mean RTVn of each drug administration group using the following equation (equation F); and the weight change rate (BWCn) was calculated using the following equation (equation G). RTVn=TVn/TV1 (equation E) T/Cn(%)=(mean RTV of each drug administration group on the last day of the test)/(mean RTV of the control group on the last day of the test)×100 (equation F) BWCn (%)=(BWn−BW1)/BW1×100 (equation G) FIGS. 1 and 2, and Table 21 below show the results.

[5] = system: human acute lymphoblastic leukemia (ALL) CCRF-CEM cell lines; assay: Antitumor effect on tumor cells transplanted into mice 3; assay type: in vivo; conditions: CCRF-CEM xenograft in nude mice
Method: as §1, §2
The tumor growth inhibitory effects on human tumors were evaluated as in Test Example 5, except that the compound hydrochloride obtained in Example 122, the compound hydrochloride (Example 64), and human acute lymphoblastic leukemia (ALL) CCRF-CEM cell lines were used, and the animals were assigned to each group in accordance with a stratified randomization procedure when the TV reached 140 to 380 mm3.
At this time, the cell lines were washed in PBS, and suspended in 50% PBS and 50% Matrigel basement membrane matrix (#356237; produced by BD Biosciences) at a concentration of 1×10^8 cells/mL. 0.1 mL of this cell suspension was subcutaneously implanted to the right chest of 6-week-old BALB/cAJcl-nu/nu mice (nude mice) (produced by CLEA Japan, Inc.). The compound hydrochloride (Example 122) was intravenously administered in an amount of 5 mL per 1 kg of body weight on days 1 and 8, and the compound hydrochloride (Example 133) was intravenously administered in an amount of 5 mL per 1 kg of body weight on days 1 and 8.

[6] = biological target: NAE (heterodimer of APPBP1 and UBA3) (Homo sapiens (Human), UniProt Q8TBC4); assay: Nedd8 conjugation inhibitory activity (AlphaScreen assay); assay type: biochemical; conditions: purified NAE, GST-UBC12, Biotin-Nedd8, ATP
[7] = 120 mg/kg/day intravenously on days 1, 4, 8, 11, day 15
[8] = compound hydrochlorides intravenously, Dunnett's test
[9] = 50 mg/kg/day intravenously on days 1, 4, 8, 11, day 15

Chain of NAE (heterodimer of APPBP1 and UBA3) (Q8TBC4 whole entry): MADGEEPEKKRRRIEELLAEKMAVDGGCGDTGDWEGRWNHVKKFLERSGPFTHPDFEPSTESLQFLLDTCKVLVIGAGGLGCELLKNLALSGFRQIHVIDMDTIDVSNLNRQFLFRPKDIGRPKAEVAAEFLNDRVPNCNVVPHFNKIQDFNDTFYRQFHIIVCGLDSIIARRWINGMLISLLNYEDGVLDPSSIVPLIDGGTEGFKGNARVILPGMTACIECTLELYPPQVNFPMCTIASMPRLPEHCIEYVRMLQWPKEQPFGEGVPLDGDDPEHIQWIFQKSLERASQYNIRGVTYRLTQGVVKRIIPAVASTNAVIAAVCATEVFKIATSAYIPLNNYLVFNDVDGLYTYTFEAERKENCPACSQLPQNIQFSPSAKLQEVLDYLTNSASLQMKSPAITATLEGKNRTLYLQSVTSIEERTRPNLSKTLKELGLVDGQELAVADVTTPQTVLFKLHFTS
Chain of NAE (heterodimer of APPBP1 and UBA3) (Q13564 whole entry partner): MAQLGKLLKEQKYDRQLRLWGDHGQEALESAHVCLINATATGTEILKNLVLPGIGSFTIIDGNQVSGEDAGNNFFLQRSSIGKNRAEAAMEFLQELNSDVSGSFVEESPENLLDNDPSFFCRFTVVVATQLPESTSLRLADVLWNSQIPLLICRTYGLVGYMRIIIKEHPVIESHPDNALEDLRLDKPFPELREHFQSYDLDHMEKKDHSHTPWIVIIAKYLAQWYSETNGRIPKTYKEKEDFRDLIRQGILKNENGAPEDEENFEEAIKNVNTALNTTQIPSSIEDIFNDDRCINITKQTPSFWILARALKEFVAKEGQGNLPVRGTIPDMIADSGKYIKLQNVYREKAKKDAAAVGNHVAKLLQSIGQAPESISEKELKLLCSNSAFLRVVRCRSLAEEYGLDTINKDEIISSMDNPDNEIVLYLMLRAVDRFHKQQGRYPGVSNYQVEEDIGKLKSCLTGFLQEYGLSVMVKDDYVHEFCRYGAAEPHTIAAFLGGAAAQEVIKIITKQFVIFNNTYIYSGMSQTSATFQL

## NS(=O)(=O)OC[C@@H]1C[C@@H](n2ccc3c(N[C@H]4CCc5ccccc54)ncnc32)C[C@@H]1O [Comparative Example, N-[(1S)-1-indanyl]-7-[(1R)-3α-hydroxy-4α-(sulfamoyloxymethyl)cyclopentyl]-7H-pyrrolo[2,3-d]pyrimidin-4-amine, reference compound]
[1]
  IC50: > 10000 nM
Carbonic anhydrase II
  IC50: 0.012 µM

## NS(=O)(=O)OC[C@@H]1C[C@@H](n2ccc3c(N[C@H]4CCc5ccccc54)ncnc32)C[C@H]1O [Comparative Example, N-[(1S)-1-indanyl]-7-[(1R)-3α-hydroxy-4α-(sulfamoyloxymethyl)cyclopentyl]-7H-pyrrolo[2,3-d]pyrimidin-4-amine, reference compound]
Carbonic anhydrase II
  inhibitory activity against carbonic anhydrase II: exhibited inhibitory activity
[2]; administration days 1, 4, 8, 11, day 15
  T/C15: 47%
[2]; body weight change rate, days 1, 4, 8, 11, day 15
  BWC15 Mean ± SD: 6.1 ± 2.6%
[3]; HCT-116 xenograft in mice, 120 mg/kg/day intravenous, administration days 1, 4, 8, 11, day 15
  T/C15: 51%
[3]; HCT-116 xenograft, hydrochloride compound of Example 55, Dunnett's test
  RTV15 comparison with the control: significantly lower than that of the control
[3]; body weight change rate, HCT-116 xenograft in mice, 120 mg/kg/day intravenous, days 1, 4, 8, 11, day 15
  BWC15 Mean ± SD: −8.4 ± 3.2%
[4]; [7]
  T/C15 (%): 36%
  BWC15 (%) Mean ± SD: −14.3 ± 5.1%
[4]; HCT-116 xenograft
  RTV15 comparison with the control: significantly lower than that of the control
[5]; [8]
  RTV comparison with the control on day 15: significantly lower than that of the control

## Nc1ncnc2c1c(C#Cc1c(F)cccc1F)cn2[C@@H]1O[C@H](CNS(N)(=O)=O)[C@@H](O)[C@H]1O [Example 1, 4-Amino-5-[2-(2,6-difluorophenyl)ethynyl]-7-[(2R,3R,4S,5R)-3,4-dihydroxy-5-[(sulfamoylamino)methyl]tetrahydrofuran-2-yl]pyrrolo[2,3-d]pyrimidine]
[4]; [9]
  T/C15 (%): 23%
  BWC15 (%) Mean ± SD: −11.8 ± 4.7%
[4]; HCT-116 xenograft mice
  change of the body weight compared with the control: within an acceptable degree
[4]; HCT-116 xenograft, Aspin-Welch's t-test
  RTV comparison with the Comparative Example: significantly lower than that of the Comparative Example
[4]; HCT-116 xenograft
  RTV15 comparison with the control: significantly lower than that of the control

## CN1CCOc2c1ccc(F)c2C#Cc1cn([C@@H]2C[C@H](CNS(N)(=O)=O)[C@@H](O)[C@H]2O)c2ncnc(N)c12 [Example 122, 8-[2-[4-amino-7-[(1R,2S,3R,4R)-2,3-dihydroxy-4-[(sulfamoylamino)methyl]cyclopentyl]pyrrolo[2,3-d]pyrimidin-5-yl]ethynyl]-7-fluoro-4-methyl-2,3-dihydro-1,4-benzoxazine]
[6]
  IC50: 0.02 µM
Carbonic anhydrase II
  IC50: > 1 µM
[5]; 50 mg/kg/day intravenous, administration days 1, 8, day 15
  T/C15: 6%
[5]; [8]
  RTV comparison with the Comparative Example: significantly lower than that of the Comparative Example
  RTV comparison with the control on day 15: significantly lower than that of the control
[5]; body weight change rate, 50 mg/kg/day intravenous, days 1, 8, day 15
  BWC15 Mean ± SD: 6.0 ± 4.5%
